The term Ki denotes a dissociation constant, usually derived from enzyme kinetics or from competition with a known ligand. Low values mean a stronger hold on the target, high ones a looser hold on the target. By ED50 is commonly meant the midpoint of the dose-response relation.

The target of experiment [1] is T1, cGMP-specific 3',5'-cyclic phosphodiesterase (Homo sapiens, UniProt O76074). Nature of the experiment: Inhibitory activity against Phosphodiesterase 5 (PDE5) was evaluated.
A short description of experiment [2]: Selective inhibition of PDE5 versus PDE6 in retinal rod.
Experiment [3] can be described thus: Selective inhibition of PDE5 versus PDE6 in retinal cone.
Experiment [4] is filed under the species Canis familiaris. Nature of the experiment: Effective dose in dogs. It counts as functional. Conditions: Canis lupus familiaris.
For experiment [5], the species on record is Canis familiaris. Nature of the experiment: Dose required for potentiated ICP increase in dogs. The format is functional, Canis lupus familiaris.
The target in experiment [6] is T1, cGMP-specific 3',5'-cyclic phosphodiesterase. Nature of the experiment: Inhibition of PDE5.

Compound `O=C(c1cc2ccc(O)cc2o1)N1Cc2c(nc3ccccc3c2O)C1c1ccc2c(c1)OCO2` (stereo not drawn) came in with a Ki in experiment [1] of 0.35 nM. Moreover, the Ratio in experiment [2] is 31; in experiment [3] it was 29. In turn, `CN(C)c1ccc(-c2ccc(C(=O)N3Cc4c(nc5ccccc5c4O)C3c3ccc4c(c3)OCO4)o2)cc1` (stereo not drawn) came in with a Ki in experiment [1] of 3.74 nM.

With `CN1CCN(C(=O)c2ccc(-c3ccc(C(=O)N4Cc5c(nc6ccccc6c5O)C4c4ccc5c(c4)OCO5)o3)cc2)CC1` (racemic) [listing 1 of 2 here], the Ratio in experiment [2] and in experiment [3] was 2 each time. In experiment [1], `O=C(c1cc2ccc(O)cc2o1)N1Cc2c(nc3ccccc3c2O)C1c1ccc2c(c1)CCO2` (stereo not drawn) had a Ki of 1.74 nM. The Ratio in experiment [2] was 291; in experiment [3], 646. `O=C(c1ccc(-c2ccsc2)o1)N1Cc2c(nc3ccccc3c2O)C1c1ccc2c(c1)OCO2` (stereo not drawn): the affinity in experiment [1], expressed as Ki, was 0.71 nM. In experiment [1], `O=C(c1ccc(-c2cccc(CO)c2)o1)N1Cc2c(nc3ccccc3c2O)C1c1ccc2c(c1)OCO2` (stereo not drawn) gave a Ki of 0.47 nM.

In experiment [1], `O=C(c1ccc(-c2cccc(C(F)(F)F)c2)o1)N1Cc2c(nc3ccccc3c2O)C1c1ccc2c(c1)OCO2` (stereo not drawn) came in with a Ki of 0.98 nM. Still for that read-out and setting: for `O=C(c1ccc(-c2ccc(O)cc2)o1)N1Cc2c(nc3ccccc3c2O)C1c1ccc2c(c1)OCO2` (stereo not drawn) the value was 0.73 nM; for `O=C(c1ccc(-c2ccco2)o1)N1Cc2c(nc3ccccc3c2O)C1c1ccc2c(c1)OCO2` (stereo not drawn), 4.66 nM; for `O=C(c1ccccc1)N1Cc2c(nc3ccccc3c2O)C1c1ccc2c(c1)OCO2` (stereo not drawn), 2.49 nM. On the same count and under the same terms, for `O=C(O)c1ccc(-c2ccc(C(=O)N3Cc4c(nc5ccccc5c4O)C3c3ccc4c(c3)OCO4)o2)cc1` (stereo not drawn) the value was 1.01 nM. As to `O=C(c1ccc(-c2cccnc2)o1)N1Cc2c(nc3ccccc3c2O)C1c1ccc2c(c1)OCO2` (stereo not drawn), the Ki in experiment [1] came out at 0.15 nM. Moreover, the Ratio stood at 144 in experiment [2] and 108 in experiment [3]. In experiment [1], `CN1CCN(C(=O)c2ccc(-c3ccc(C(=O)N4Cc5c(nc6ccccc6c5O)C4c4ccc5c(c4)OCO5)o3)cc2)CC1` (racemic) [listing 2 of 2 here] returned a Ki of 1.82 nM. Still for that read-out and setting: under `O=C(c1ccc(-c2ccc([N+](=O)[O-])cc2)o1)N1Cc2c(nc3ccccc3c2O)C1c1ccc2c(c1)OCO2` (stereo not drawn) stands 0.61 nM; under `COc1ccc(-c2ccc(C(=O)N3Cc4c(nc5ccccc5c4O)C3c3ccc4c(c3)OCO4)o2)cc1` (stereo not drawn), 1.71 nM; under `O=C(c1ccc(-c2ccccc2)o1)N1Cc2c(nc3ccccc3c2O)C1c1ccc2c(c1)OCO2` (stereo not drawn), 2.09 nM.

As to `CN1CCN(C(=O)c2ccc(-c3ccc(C(=O)N4Cc5c(nc6ccccc6c5O)C4c4ccc5c(c4)OCO5)o3)cc2)CC1` (single isomer, unassigned; (-)) [listing 1 of 2 here], the Ratio in experiment [2] was 13; in experiment [3], 13.2. `O=C(c1ccc(-c2cccnc2)o1)N1Cc2c(nc3ccccc3c2O)C1c1ccc2c(c1)CCO2` (stereo not drawn): the Ki in experiment [1] turned out to be 0.53 nM. Turning to `O=C(c1ccc(-c2ccc(OCCN3CCCC3)cc2)o1)N1Cc2c(nc3ccccc3c2O)C1c1ccc2c(c1)OCO2` (stereo not drawn), the inhibition constant Ki in experiment [1] is 0.76 nM. `CN1CCN(C(=O)c2ccc(-c3ccc(C(=O)N4Cc5c(nc6ccccc6c5O)C4c4ccc5c(c4)CCO5)o3)cc2)CC1` (stereo not drawn): the Ratio in experiment [2] came to 13; in experiment [3], 12. `CN1CCN(C(=O)c2ccc(-c3ccc(C(=O)N4Cc5c(nc6ccccc6c5O)C4c4ccc5c(c4)OCO5)o3)cc2)CC1` (single isomer, unassigned; (-)) [listing 2 of 2 here] gave a Ki in experiment [1] of 0.2 nM. `CS(=O)(=O)Nc1ccc(-c2ccc(C(=O)N3Cc4c(nc5ccccc5c4O)C3c3ccc4c(c3)OCO4)o2)cc1` (stereo not drawn): the 50% effect level in experiment [4] (ED50) was put at a dose of 0.284 mg/kg. Further, in experiment [1], the affinity corresponds to a Ki of 0.24 nM. The Dose in experiment [5] worked out at 0.3 mg/kg.

Compound `Cc1ccc(-c2ccc(C(=O)N3Cc4c(nc5ccccc5c4O)C3c3ccc4c(c3)OCO4)o2)cc1` (stereo not drawn) showed a Ki in experiment [1] of 2.64 nM. In turn, `O=C(c1ccc(-c2ccc(CO)cc2)o1)N1Cc2c(nc3ccccc3c2O)C1c1ccc2c(c1)OCO2` (stereo not drawn) returned a Ki in experiment [1] of 0.61 nM. Compound `O=C(c1ccc(-c2ccncc2)o1)N1Cc2c(nc3ccccc3c2O)C1c1ccc2c(c1)OCO2` (stereo not drawn) displayed a Ki in experiment [1] of 0.31 nM. Further, the Ratio in experiment [2] stood at 23; in experiment [3] it was 34. In the case of `O=Cc1ccc(-c2ccc(C(=O)N3Cc4c(nc5ccccc5c4O)C3c3ccc4c(c3)OCO4)o2)cc1` (stereo not drawn), affinity in experiment [6] was put at a Ki of 2.59 nM. In the case of `O=C(c1ccc(-c2cccc([N+](=O)[O-])c2)o1)N1Cc2c(nc3ccccc3c2O)C1c1ccc2c(c1)OCO2` (stereo not drawn), the Ki in experiment [1] came to 1.3 nM. In turn, `O=C(c1ccc(Br)o1)N1Cc2c(nc3ccccc3c2O)C1c1ccc2c(c1)OCO2` (stereo not drawn) had a Ki in experiment [1] of 2.07 nM.

`COC(=O)c1ccc(-c2ccc(C(=O)N3Cc4c(nc5ccccc5c4O)C3c3ccc4c(c3)OCO4)o2)cc1` (stereo not drawn) showed a Ki in experiment [1] of 0.99 nM. The same measure, in the same setting: for `N#Cc1ccc(-c2ccc(C(=O)N3Cc4c(nc5ccccc5c4O)C3c3ccc4c(c3)OCO4)o2)cc1` (stereo not drawn) the value was 2.71 nM.

These data come from ChEMBL document CHEMBL1145958, “Furoyl and benzofuroyl pyrroloquinolones as potent and selective PDE5 inhibitors for treatment of erectile dysfunction” (J Med Chem, 2003).
